Laboratory results taken from article PMC11079024, “Identification of a family of species-selective complex I inhibitors as potential anthelmintics” (Nature Communications, 2024).
“And” between values parts separate entries of the source, which are not always exact repeats. Equal values may be shown once. Read-outs that look alike come from different tables or passages of the source.

Key:
L1 wild-type C. elegans = details: for Relative Motility: relative to DMSO controls, single biological replicate
[1] = molecular target: C. elegans (N2) complex I (NADH:ubiquinone oxidoreductase) (Caenorhabditis elegans, UniProt P24887+Q93873+Q94360); assay: biochemical; type: biochemical; details: for percent (%) in vitro complex I activity relative to solvent control: mitochondria
Procedure: Mitochondria were isolated from the following free-living nematode strains: C. elegans—N2, CB3474, ECA882, ECA917, ECA1075, ECA1080; C. briggsae—AF16; P. pacificus—PS312; and P. hermaphrodita—B178. With the exception of the P. hermaphrodita strain B178, adult worms of each strain were grown in bulk through liquid culture to obtain mitochondria in sufficient quantities. Due to poor growth in liquid media, mixed stage populations of P. hermaphrodita were washed off and collected from NGM plates seeded with OP50. The isolation of mitochondria from all free-living nematode strains followed the protocol previously outlined in Burns et al.[24]. In brief, a 1 L saturated culture of E. coli HB101 was concentrated 20-fold in 50 mL complete S-medium. ~500,000 L1 worms synchronized from an embryo preparation performed the day prior were added to the S-media/HB101 suspension and grown to adulthood over the course of 3.5 days at 20 °C with shaking at 165 rpm. Following growth, worms were collected in 10 ×15 mL conical tubes and washed 7 times in M9 buffer. Worm suspensions were then combined into a single 15 mL conical tube and diluted to a final volume of 15 mL with M9 buffer. 1 mL aliquots of worm suspension were then distributed to 15 × 1.5 mL screw-cap microcentrifuge tubes and were pelleted at 500 g for 1 min. Excess M9 was aspirated without disturbing the worm pellet. 600 μL ice-cold isolate buffer A (250 mM sucrose, 10 mM Tris (pH 7.5), 1 mM EDTA, 1 mM PMSF (freshly prepared)) and 300 μL cold glass beads were then added to each tube. Tubes were incubated on ice for 10 min, and the worms were then lysed by bead beating (6 x 30 s, with 1 min cooling intervals). Tubes containing worm lysate were centrifuged at 1,000 g for 10 min at 4 °C and the supernatant was transferred to 15 new microcentrifuge tubes on ice. The tubes were centrifuged a second time at 1,000 g for 10 min at 4 °C and the supernatant was once again transferred to 15 new microcentrifuge tubes on ice. These tubes were then centrifuged at 16,000 g for 10 min at 4 °C. The resulting mitochondrial pellet was washed twice by re-suspension in 300 μL of ice-cold isolate buffer B (250 mM sucrose, 10 mM Tris (pH 7.5), 1 mM EDTA). Following the final wash, isolation buffer was aspirated from each tube and the pellets were flash-frozen in ethanol/dry ice and stored at −80 °C until needed.
(§1) The enzymatic activities of individual ETC complexes (I-IV) were assessed spectrophotometrically in isolated mitochondria using a Varioskan LUX Multimode plate reader (ThermoFisher Scientific). Mitochondrial pellets previously isolated were thawed on ice and resuspended in ice-cold isolation buffer (250 mM sucrose, 10 mM Tris (pH 7.5), 1 mM EDTA). The BCA assay (Walker, 1994) was used to quantify the protein concentration of mitochondria suspensions; solutions were diluted to a concentration of 0.2 mg/mL for use in all assays. For the complex I assay, mitochondria pellets were freeze-thawed on ice three times to increase enzyme accessibility. […] 20 μL mitochondria suspension was then added/mixed with a pipette to initiate the reaction. Immediately following the addition of mitochondria, absorbance was measured (complex I and II: 600 nm; complex III and IV: 550 nm) in 30 s intervals over 15 min. Enzymatic activity was determined in each reaction by plotting absorbance versus time and calculating the slope of the curve during the initial linear phase of the reaction. […] Percent activity of each complex was calculated by dividing the enzyme-specific activity of each well by the enzyme-specific activity of the corresponding solvent controls.
(§2) Chemical solutions were prepared in complex I assay buffer composed of 25 mM KPi buffer (pH 7.5), 3 mg/mL bovine serum albumin (BSA), 80 μM NADH, 60 μM decylubiquinone, 160 μM DCIP, 2 μM antimycin A and 2 mM KCN.
For preliminary screens of hit compounds, compounds were screened at 100 μM; data are the average of at least three biological replicates.

[2] = molecular target: B. taurus (heart) complex I (Bos taurus, UniProt P03887+P17694+P42026); assay: biochemical; type: biochemical; details: heart mitochondria; read-out: B. taurus Complex I IC50
Procedure: Six 8–10-week-old C57Bl/6 female mice (Charles River) were freshly dissected, and their livers and hearts collected into separate 1.5 mL microcentrifuge tubes. Organs were flash-frozen in liquid nitrogen and stored at −80 °C prior to use. The heart of a freshly slaughtered adult cow was obtained from a local abattoir (Peel Sausage Inc.), chopped into ~1-inch cubes and collected into 50 mL falcon tubes. Falcon tubes were flash-frozen in a container of dry ice and stored at −80 °C prior to use. Isolation of mitochondria from all mammalian tissue was carried out following the protocol described above. However, due to size, the initial homogenization of tissue was performed by 15 strokes in a dounce homogenizer (mouse heart) or with several 5 s pulses in small Nutribullet blender (cow heart). All mouse protocols for mouse care and dissection were reviewed and approved by the University of Toronto Animal Care Committee, in accordance with the Canadian Council on Animal Care.
as §1, §2
For preliminary screens of hit compounds, compounds were screened at 100 μM; data are the average of at least three biological replicates. The complex I and II activity assays were used for additional dose-response experiments. […] For dose responses of benzimidazole analogs, data represent the average of two biological replicates. For all other dose-responses, data represent the average of at least three biological replicates.

[3] = 50 μM, KCN survival assay, hit = relative motility below 0.25
[4] = 50 μM, worm motility 3 hours after the removal of KCN (endpoint)
[5] = 50 μM, hit = relative motility below 0.25 3 hours after removal of KCN
[6] = 50 μM, worm motility 3 hours after removal of KCN
[7] = read-out: percent (%) in vitro complex I activity relative to solvent control

Sequence of C. elegans (N2) complex I (NADH:ubiquinone oxidoreductase) (Q94360 17-199): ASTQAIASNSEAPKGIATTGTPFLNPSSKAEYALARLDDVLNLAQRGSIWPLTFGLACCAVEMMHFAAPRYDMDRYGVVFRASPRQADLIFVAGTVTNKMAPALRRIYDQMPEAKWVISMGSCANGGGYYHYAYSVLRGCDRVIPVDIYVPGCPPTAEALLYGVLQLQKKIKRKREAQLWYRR
Sequence of C. elegans (N2) complex I (NADH:ubiquinone oxidoreductase) (P24887 whole entry): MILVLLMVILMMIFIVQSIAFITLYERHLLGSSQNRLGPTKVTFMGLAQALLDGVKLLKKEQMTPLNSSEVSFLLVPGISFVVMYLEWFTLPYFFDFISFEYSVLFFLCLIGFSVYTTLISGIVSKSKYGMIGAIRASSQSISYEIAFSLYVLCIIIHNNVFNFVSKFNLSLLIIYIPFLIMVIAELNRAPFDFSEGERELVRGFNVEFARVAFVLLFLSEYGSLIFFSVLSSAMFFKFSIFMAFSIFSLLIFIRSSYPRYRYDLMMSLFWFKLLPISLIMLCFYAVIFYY
Sequence of C. elegans (N2) complex I (NADH:ubiquinone oxidoreductase) (Q93873 31-482): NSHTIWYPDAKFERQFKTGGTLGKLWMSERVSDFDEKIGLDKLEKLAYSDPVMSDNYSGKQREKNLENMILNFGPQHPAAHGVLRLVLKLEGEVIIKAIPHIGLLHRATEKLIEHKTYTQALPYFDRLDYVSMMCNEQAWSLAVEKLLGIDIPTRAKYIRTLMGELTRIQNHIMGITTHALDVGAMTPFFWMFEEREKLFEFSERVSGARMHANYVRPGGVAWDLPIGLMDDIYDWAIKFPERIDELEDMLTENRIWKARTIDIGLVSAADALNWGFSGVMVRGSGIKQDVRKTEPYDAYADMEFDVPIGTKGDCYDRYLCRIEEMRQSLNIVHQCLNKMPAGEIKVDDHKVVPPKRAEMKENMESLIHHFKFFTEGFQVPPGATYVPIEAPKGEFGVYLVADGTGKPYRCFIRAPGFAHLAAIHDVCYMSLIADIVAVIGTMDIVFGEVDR
Sequence of B. taurus (heart) complex I (P03887 whole entry): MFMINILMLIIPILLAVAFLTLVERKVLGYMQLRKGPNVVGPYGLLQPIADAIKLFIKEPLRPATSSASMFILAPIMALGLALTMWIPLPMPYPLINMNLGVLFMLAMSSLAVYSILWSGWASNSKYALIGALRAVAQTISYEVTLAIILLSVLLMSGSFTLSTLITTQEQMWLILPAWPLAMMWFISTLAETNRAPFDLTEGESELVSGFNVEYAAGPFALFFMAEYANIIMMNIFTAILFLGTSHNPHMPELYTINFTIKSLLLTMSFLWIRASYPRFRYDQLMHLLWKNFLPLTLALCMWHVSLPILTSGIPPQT
Sequence of B. taurus (heart) complex I (P17694 34-463): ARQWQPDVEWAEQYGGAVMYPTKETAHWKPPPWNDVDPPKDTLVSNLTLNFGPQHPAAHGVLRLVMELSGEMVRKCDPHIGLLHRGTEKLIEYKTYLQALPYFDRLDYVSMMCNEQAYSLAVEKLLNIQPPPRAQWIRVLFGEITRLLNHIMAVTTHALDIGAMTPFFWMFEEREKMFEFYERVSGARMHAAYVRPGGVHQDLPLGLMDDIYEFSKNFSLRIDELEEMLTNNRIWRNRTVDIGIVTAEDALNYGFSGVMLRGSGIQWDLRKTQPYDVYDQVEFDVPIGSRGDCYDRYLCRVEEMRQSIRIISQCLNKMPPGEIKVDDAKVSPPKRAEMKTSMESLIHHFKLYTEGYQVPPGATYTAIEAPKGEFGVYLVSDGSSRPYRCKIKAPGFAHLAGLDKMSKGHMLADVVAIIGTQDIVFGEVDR
Sequence of B. taurus (heart) complex I (P42026 38-216): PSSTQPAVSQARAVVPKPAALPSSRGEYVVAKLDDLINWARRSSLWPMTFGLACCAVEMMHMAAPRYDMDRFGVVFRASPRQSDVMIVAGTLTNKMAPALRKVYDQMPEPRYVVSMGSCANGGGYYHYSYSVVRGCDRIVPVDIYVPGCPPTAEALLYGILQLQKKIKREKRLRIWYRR

SMILES: CCN(CC)CCSc1nc2ccccc2n1Cc1ccccc1 [Compound 5685018]
- Screen "Hit" (L1 wild-type C. elegans; [3]): Y (hits were identified as compounds that reduced relative motility below 0.25 (75% reduction))
- Relative Motility (L1 wild-type C. elegans; [4]): 0.220

SMILES: N#Cc1ccc(CSc2nc3ccc(Br)cc3[nH]2)cc1 [Compound 6726033]
- Screen "Hit" (L1 wild-type C. elegans; [5]): Y (hits were identified as compounds that reduced relative motility below 0.25 (75% reduction))
- Relative Motility (L1 wild-type C. elegans; [6]): 0.140

SMILES: CCCc1nc2ccccc2n1Cc1ccc(C)cc1 [Compound 6607958]
- Screen "Hit" (L1 wild-type C. elegans; [3]): Y (hits were identified as compounds that reduced relative motility below 0.25 (75% reduction))
- Relative Motility (L1 wild-type C. elegans; [4]): 0.120

SMILES: Nc1ccc(Oc2ccc(-c3nc4ccccc4[nH]3)cc2)cc1 [Compound 5747231]
- Screen "Hit" (L1 wild-type C. elegans; [5]): Y (hits were identified as compounds that reduced relative motility below 0.25 (75% reduction))
- Relative Motility (L1 wild-type C. elegans; [6]): 0.130

SMILES: c1ccc2c(c1)ncn2CCOc1ccc2c(c1)CCC2 [Compound 7925762]
- Screen "Hit" (L1 wild-type C. elegans; 50 μM compound, hit = relative motility below 0.25 3 hours after removal of KCN): Y (hits were identified as compounds that reduced relative motility below 0.25 (75% reduction))
- Relative Motility (L1 wild-type C. elegans; 50 μM compound, worm motility 3 hours after removal of KCN): 0.250

SMILES: COc1ccc2c(c1)nc(SCc1ccccc1)n2C [Compound 5649512]
- Screen "Hit" (L1 wild-type C. elegans; [5]): Y (hits were identified as compounds that reduced relative motility below 0.25 (75% reduction))
- Relative Motility (L1 wild-type C. elegans; [6]): 0.190

SMILES: CCOc1ccc(CNc2nc3ccccc3n2CC)cc1 [Compound 7758171]
- Screen "Hit" (L1 wild-type C. elegans; [5]): Y (hits were identified as compounds that reduced relative motility below 0.25 (75% reduction))
- Relative Motility (L1 wild-type C. elegans; [6]): 0.180

SMILES: CCn1c(C)nc2cc(-c3ccccc3)ccc21 [Compound 5160815]
- Screen "Hit" (L1 wild-type C. elegans; 50 μM, hit = relative motility below 0.25 3 hours after the removal of KCN): Y (hits were identified as compounds that reduced relative motility below 0.25 (75% reduction))
- Relative Motility (L1 wild-type C. elegans; [4]): 0.085

SMILES: Cn1c(/C=C/c2ccc(Cl)cc2)nc2ccccc21 [Compound 5663561]
- Screen "Hit" (L1 wild-type C. elegans; [3]): Y (hits were identified as compounds that reduced relative motility below 0.25 (75% reduction))
- Relative Motility (L1 wild-type C. elegans; [4]): 0.220

SMILES: Fc1cccc(F)c1CSc1nc2ccccc2[nH]1 [Compound 5616951]
- Screen "Hit" (L1 wild-type C. elegans; [5]): Y (hits were identified as compounds that reduced relative motility below 0.25 (75% reduction))
- Relative Motility (L1 wild-type C. elegans; [6]): 0.130

SMILES: Cn1c(NCc2cccc(Br)c2)nc2ccccc21 [Compound 7766492]
- Screen "Hit" (L1 wild-type C. elegans; [5]): Y (hits were identified as compounds that reduced relative motility below 0.25 (75% reduction))
- Relative Motility (L1 wild-type C. elegans; [6]): 0.130

SMILES: COC(=O)c1ccc(OCC(O)Cn2c(C)nc3ccccc32)cc1 (stereo not drawn) [Compound 5929389]
- Hit (L1 wild-type C. elegans; active or inactive at 50 μM in C. elegans assay of RQ-dependent metabolism): non

SMILES: COc1ccc(CSc2nc3ccccc3[nH]2)cc1 [Compound 5568705]
- Screen "Hit" (L1 wild-type C. elegans; [5]): Y (hits were identified as compounds that reduced relative motility below 0.25 (75% reduction))
- Relative Motility (L1 wild-type C. elegans; [6]): 0.100

SMILES: Cc1ccc2[nH]c(-c3ccccc3N)nc2c1 [Compound 5534607]
- Hit (L1 wild-type C. elegans; active (hit) or inactive (non) at 50 μM in C. elegans assay of RQ-dependent metabolism): non

SMILES: C=CCn1c(/C=C/c2ccccc2OC)nc2ccccc21 [Compound 7121977]
- Screen "Hit" (L1 wild-type C. elegans; [3]): Y (hits were identified as compounds that reduced relative motility below 0.25 (75% reduction))
- Relative Motility (L1 wild-type C. elegans; [4]): 0.140

SMILES: C=CCn1c(NCc2ccccc2OC)nc2ccccc21 [Compound 7419109]
- Screen "Hit" (L1 wild-type C. elegans; [5]): Y (hits were identified as compounds that reduced relative motility below 0.25 (75% reduction))
- Relative Motility (L1 wild-type C. elegans; [6]): 0.078

SMILES: Cc1ccc(C(C)C)cc1OCC(O)Cn1c(C)nc2ccccc21 (stereo not drawn) [Compound 7748492]
- Screen "Hit" (L1 wild-type C. elegans; [5]): Y (hits were identified as compounds that reduced relative motility below 0.25 (75% reduction))
- Relative Motility (L1 wild-type C. elegans; [6]): 0.220

SMILES: Cc1nc2cc(Cl)ccc2n1-c1ccccc1 [Compound 5119819]
- Screen "Hit" (L1 wild-type C. elegans; [3]): Y (hits were identified as compounds that reduced relative motility below 0.25 (75% reduction))
- Relative Motility (L1 wild-type C. elegans; [4]): 0.230

SMILES: CCn1c(NCc2cccc(Br)c2)nc2ccccc21 [Compound 7746308]
- Screen "Hit" (L1 wild-type C. elegans; [5]): Y (hits were identified as compounds that reduced relative motility below 0.25 (75% reduction))
- Relative Motility (L1 wild-type C. elegans; [6]): 0.200

SMILES: CCCSc1ccc2nc(NC(=O)OC)[nH]c2c1 [Albendazole]
- percent (%) in vitro complex I activity relative to solvent control ([1]; 0.125 µM): 118.853% and 109.086% and 106.962%
- percent (%) in vitro complex I activity relative to solvent control ([1]; 0.313 µM): 114.037% and 108.086% and 98.922%
- percent (%) in vitro complex I activity relative to solvent control ([1]; 0.625 µM): 95.184% and 91.388% and 110.521%
- percent (%) in vitro complex I activity relative to solvent control ([1]; 1.5 µM): 96.241% and 104.509% and 111.883%
- percent (%) in vitro complex I activity relative to solvent control ([1]; 3 µM): 99.535% and 109.848% and 112.347%
- percent (%) in vitro complex I activity relative to solvent control ([1]; 15 µM): 97.910% and 114.555% and 112.953%
- percent (%) in vitro complex I activity relative to solvent control ([1]; 37.5 µM): 89.237% and 107.533% and 106.445%
- percent (%) in vitro complex I activity relative to solvent control ([1]; 75 µM): 100.906% and 79.462% and 105.930% and 106.268%
- remaining activity at 0.125 µM [1, 7]: 103%
- remaining activity at 0.313 µM [1, 7]: 104%
- remaining activity at 0.625 µM [1, 7]: 102%
- remaining activity at 1.5 µM [1, 7]: 109%
- remaining activity at 3 µM [1, 7]: 106%
- remaining activity at 15 µM [1, 7]: 106%
- remaining activity at 37.5 µM [1, 7]: 105%
- remaining activity at […] [1, 7]: 108%

SMILES: Cc1nn(C)c(Oc2ccccc2)c1C=NOCc1ccc(C(=O)OC(C)(C)C)cc1 [Fenpyroximate, reference compound]
- IC50 [2]: 48 nM
- IC50 ([1]; wild-type (N2) mitochondria, read-out: C. elegans Complex I IC50): 21 nM
